Data published in patent publication US12365684B2, “Short-acting benzodiazepine salts and their polymorphic forms” (priority 2006, dated 2025).
Several values for one entry are separate records, joined by “and”; a condition that tells them apart may be missing. Identical values can stand only once. Like-named read-outs stand apart in the source and are kept apart here.

Legend:
mice = test: Anaesthetic and sedative effects: loss of the righting reflex (LRR) after i.v. administration; format: in vivo; details: for NUMBER OF MICE WITH LRR: eight mice per group; for LRR DURATION, mean: maximum = 90 minutes after injection
Experimental: The anaesthetic and sedative effects of the besylate salt Form 1 of the present invention was evaluated. The besylate (benzenesulfonic acid) salt was dissolved in physiological saline for administration of the test composition to the animal. The test composition was administered to mice, placed in individual Plexiglas cages (20×10×10 cm). Mice were injected with either vehicle or test substance by the intravenous route. The latency to sleep and the duration of anaesthesia (maximum: 90 minutes after test-substance administration) were recorded. Anaesthesia is indicated by loss of the righting reflex (LRR). The righting reflex test was performed as soon as the animals appear sedated, approximately every 20-30 seconds. Once the righting reflex is absent, duration of loss of righting reflex was measured by testing for the return of the righting reflex approximately every 20-30 seconds thereafter. Eight mice were studied per group and the test was performed blind.

[1] = Polymorphism maturation experiment (solvent slurries), HPLC purity post 1 week; format: physicochemical; details: heat/cool cycle ambient to 60° C., starting hplc purity 97.7%
Experimental: The solid was slurried in various solvents (see Table 11) for one week on a heat/cool cycle from ambient to 60° C. After one week the slurries were evaporated and the solids analysed by XRPD and HPLC.
• Method: Gradient, Reverse Phase • Method Duration/min: 34 • Column: Phenomenex Gemini C18 5 μm (2.0×50 mm) (Guard cartridge Phenomenex Gemini C18 guard cartridge 2×4 mm) • Column Temperature/° C.: 40 • Injection/μl: 5 • Flow Rate ml/min: 0.8 • Detection: UV • Wavelength/nm: 255 (bandwidth of 90 nm), 240 (bandwidth of 80 nm), 254 (bandwidth of 8 nm) • Phase A: 2 mmol NH4HCO3 (adjusted to pH10 with NH3 solution) Phase B: acetonitrile Timetable: […]

[2] = Gravimetric Vapour Sorption (GVS); format: physicochemical; details: 25° C., 0-90% RH range
Experimental: All samples were run on a Hiden IGASorp moisture sorption analyser running CFRSorp software. Sample sizes were typically 10 mg. A moisture adsorption desorption isotherm was performed as outlined below (2 scans giving 1 complete cycle). All samples were loaded/unloaded at typical room humidity and temperature (40% RH, 25° C.). All samples were analysed by XRPD post GVS analysis. The standard isotherm was performed at 25° C. at 10% RH intervals over a 0-90% RH range unless otherwise stated.

[3] = Thermodynamic aqueous solubility; format: physicochemical; details: water, 25° C., 24 hrs
Experimental: This was measured by suspending sufficient compound in 0.25 ml of solvent (water) to give a maximum final concentration of 10 mg/ml of the parent free form of the compound. The suspension was equilibrated at 25° C. for 24 hrs followed by a pH check and filtration through a glass fibre C 96 well plate. The filtrate is then diluted down 101x. Quantitation was by HPLC with reference to a standard dissolved in DMSO at approx 0.1 mg/ml. Different volumes of the standard, diluted and undiluted tests were injected. The solubility was calculated by integration of the peak area found at the same retention time as the peak maximum in the standard injection. If there is sufficient solid in the filter plate the XRPD is normally checked for phase changes, hydrate formation, amorphization, crystallization etc.

[4] = Observed solubility of compound of formula (I) besylate in solvents; format: physicochemical; details: approximate
Excerpt: The compound also has an excess of Hydrogen bond acceptors and therefore will be suitably partnered by Hydrogen bond donating solvents. It is thus expected that the compound will prefer solubilisation in a range of polar organic solvents such as the alcohols, particularly those which provide a partially lipophillic, Hydrogen bond donating environment. This has been borne out by experimental evidence (details of solvents used are given in Example 8):
Values quoted are approximate, but experimentally confirmed.

[5] = pKa determination (potentiometric titration, Sirius GlpKa); format: physicochemical; details: MeOH:H2O mixtures, MeOH:H2O mixtures at 25° C., extrapolated to 0% co-solvent
Experimental: pka determination was performed on a Sirius GlpKa instrument with D-PAS attachment. Measurements were made by potentiometric titration in MeOH:H2O mixtures at 25° C. The titration media was ionic strength adjusted with 0.15M KCl. The values found in the MeOH:H2O mixtures were extrapolated to 0% co-solvent via a Yasuda-Shedlovsky extrapolation.

[6] = Solid-state stability study of compound of formula (I) (appearance, HPLC content); format: physicochemical
Experimental: Method/Technique. 2 mg samples of compound of formula (I), accurately weighed, were placed in 4-mL clear glass screw-cap vials. Samples were tested at initial and after 34 days stored at 5° C./Ambient Relative Humidity (AMRH) Closed, 30° C./60% RH Closed, 40° C./75% RH Open and 60° C./AMRH Closed.

## COC(=O)CC[C@@H]1N=C(c2ccccn2)c2cc(Br)ccc2-n2c(C)cnc21.O=S(=O)(O)c1ccccc1 [besylate Form 1]
mice; 20.4 mg/kg i.v.
  NUMBER OF MICE WITH LRR: 2
  LRR DURATION, mean: 1.7 min
mice; 27.2 mg/kg i.v.
  LATENCY TO LRR, mean ± s.e.m.: 3.0 ± 0.2 min
  NUMBER OF MICE WITH LRR: 5+
  LRR DURATION, mean: 4.9 min
mice; 34 mg/kg i.v.
  LATENCY TO LRR, mean ± s.e.m.: 1.8 ± 0.2 min
  NUMBER OF MICE WITH LRR: 6++
  LRR DURATION, mean: 6.0 min
mice; 40.8 mg/kg i.v.
  LATENCY TO LRR, mean ± s.e.m.: 1.6 ± 0.5 min
  NUMBER OF MICE WITH LRR: 6++
  LRR DURATION, mean: 7.3 min
[1]; slurried in 1,4-Dioxane
  HPLC purity post 1 week: 97.2 % area
[1]; slurried in 2.5% aq 1,4-Dioxane
  HPLC purity post 1 week: 86 % area
[1]; slurried in 2.5% aq DCM
  HPLC purity post 1 week: 97.4 % area
[1]; slurried in 2.5% aq IPA
  HPLC purity post 1 week: 76.1 % area
[1]; slurried in 2.5% aq MEK
  HPLC purity post 1 week: 93.9 % area
[1]; slurried in 2.5% aq MIBK
  HPLC purity post 1 week: 97.3 % area
[1]; slurried in 2.5% aq MeCN
  HPLC purity post 1 week: 93.3 % area
[1]; slurried in 2.5% aq THF
  HPLC purity post 1 week: 93.3 % area
[1]; slurried in 2.5% aq acetone
  HPLC purity post 1 week: 96.8 % area
[1]; slurried in DCM
  HPLC purity post 1 week: 97.4 % area
[1]; slurried in IPA
  HPLC purity post 1 week: 97.1 % area
[1]; slurried in MEK
  HPLC purity post 1 week: 97.2 % area
[1]; slurried in MIBK
  HPLC purity post 1 week: 97.7 % area
[1]; slurried in MeCN
  HPLC purity post 1 week: 94.3 % area
[1]; slurried in MtBE
  HPLC purity post 1 week: 97.7 % area
[1]; slurried in THF
  HPLC purity post 1 week: 97.6 % area
[1]; slurried in acetone
  HPLC purity post 1 week: 97.5 % area
[1]; slurried in iPrOAc
  HPLC purity post 1 week: 97.5 % area
[2]
  GVS uptake: 2.0%
[3]
  solubility: 8.3 mg/mL

## COC(=O)CC[C@@H]1N=C(c2ccccn2)c2cc(Br)ccc2-n2c(C)cnc21.O=S(=O)(O)c1ccccc1 [compound of formula (I) besylate]
[4]; Water
  solubility: 2 mg/mL
[4]; organic solvent or mixture, 1,2-ethanediol
  solubility: 60 mg/mL
[4]; organic solvent or mixture, 1,4-dioxan
  solubility: 1 mg/mL
[4]; organic solvent or mixture, 2,2,2-trifluoroethanol
  solubility: 1000 mg/mL
[4]; organic solvent or mixture, 2-ethoxyethanol
  solubility: 20 mg/mL
[4]; organic solvent or mixture, 2-methoxyethanol
  solubility: 167 mg/mL
[4]; organic solvent or mixture, Acetone
  solubility: 2 mg/mL
[4]; organic solvent or mixture, Acetonitrile
  solubility: > 20 mg/mL
[4]; organic solvent or mixture, Chloroform
  solubility: < 0.4 mg/mL
[4]; organic solvent or mixture, Dichloromethane
  solubility: < 0.3 mg/mL
[4]; organic solvent or mixture, Dimethyl sulfoxide
  solubility: 500 mg/mL
[4]; organic solvent or mixture, Dimethylacetamide
  solubility: 200 mg/mL
[4]; organic solvent or mixture, Dimethylformamide
  solubility: 300 mg/mL
[4]; organic solvent or mixture, Ethanol
  solubility: 100 mg/mL
[4]; organic solvent or mixture, Ethyl acetate
  solubility: 0.2 mg/mL
[4]; organic solvent or mixture, Formamide
  solubility: 350 mg/mL
[4]; organic solvent or mixture, Hexafluoropropan-2-ol
  solubility: > 700 mg/mL
[4]; organic solvent or mixture, Methanol
  solubility: 400 mg/mL
[4]; organic solvent or mixture, Methylbenzoate
  solubility: 2 mg/mL
[4]; organic solvent or mixture, Propan-1-ol
  solubility: 15 mg/mL
[4]; organic solvent or mixture, Propan-2-ol
  solubility: 4.8 mg/mL
[4]; organic solvent or mixture, Tetrahydrofuran
  solubility: 2.5 mg/mL

## COC(=O)CC[C@@H]1N=C(c2ccccn2)c2cc(Br)ccc2-n2c(C)cnc21 [compound of formula (I), Methyl 3-[(4S)-8-bromo-1-methyl-6-(2-pyridinyl)-4H-imidazol [1,2-a][1,4]benzodiazepin-4-yl]propanoate]
[5]; read-out: pKa of the basic centre of the imidazole ring
  pKa: ~5
[5]; read-out: pKa of the basic centre of the pyridine ring
  pKa: ~2
[6]; 5 C./AMRH Closed, 34 days
  % Relative to Avg. Initial % area: 100.52%
  Appearance: Cream to light yellow powder
  Compound of Formula (I) Content % area: 95.30 % area
  Compound of Formula (I) Content % w/w: 102.6 % w/w
[6]; 30 C./60% RH Closed, 34 days
  % Relative to Avg. Initial % area: 99.36%
  Appearance: Cream to light yellow powder
  Compound of Formula (I) Content % area: 94.20 % area
  Compound of Formula (I) Content % w/w: 94.7 % w/w
[6]; 30° C./60% RH Closed, 34 days
  drop in content relative to the initial % area: approximately 0.6%
[6]; 40 C./75% RH Open, 34 days
  % Relative to Avg. Initial % area: 98.57% and 98.50%
  Compound of Formula (I) Content % area: 93.45 % area and 93.39 % area
  Compound of Formula (I) Content % w/w: 105.4 % w/w and 100.3 % w/w
[6]; 60 C./AMRH Closed, 34 days
  % Relative to Avg. Initial % area: 92.57%
  Compound of Formula (I) Content % area: 87.77 % area
  Compound of Formula (I) Content % w/w: 93.4 % w/w and 91.1 % w/w
[6]; 34 days at 60° C./AMRH Closed
  decrease of average % w/w content from the initial value: 10 % w/w
[6]; RT, initial
  Appearance: Cream to light yellow powder
  Compound of Formula (I) Content % area: 95.14 % area and 94.47 % area
  Compound of Formula (I) Content % w/w: 100.5 % w/w and 104.1 % w/w
[6]; RT, initial, average of two samples
  Avg. Initial % area: Avg = 94.81 % area
[6]; stored at 5° C./AMRH Closed
  time stable with respect to appearance and content: at least 34 days
